Patent US20230416329A1, “A PEPTIDE WITH DISULFIDE BONDS AND INHIBITORY ACTIVITY AGAINST SERINE PROTEASES, DERIVED HYBRID PEPTIDES THEREOF, AND USES THEREOF” (INSTITUTE OF MATERIA MEDICA , CHINESE ACADEMY OF MEDICAL …, priority 2020, published 2023)
Where two headings read alike, the source gives them in different places. Bridge positions count the residues as written; N and C are the ends. Square brackets hold non-standard residues; d marks the D form. Peptide text beside a SMILES is read from it. Hyp = O=C(O)[C@@H]1C[C@@H](O)CN1

Molecular target: T1, bovine trypsin (Bos taurus, UniProt P00760)
T1 sequence (P00760 24-246): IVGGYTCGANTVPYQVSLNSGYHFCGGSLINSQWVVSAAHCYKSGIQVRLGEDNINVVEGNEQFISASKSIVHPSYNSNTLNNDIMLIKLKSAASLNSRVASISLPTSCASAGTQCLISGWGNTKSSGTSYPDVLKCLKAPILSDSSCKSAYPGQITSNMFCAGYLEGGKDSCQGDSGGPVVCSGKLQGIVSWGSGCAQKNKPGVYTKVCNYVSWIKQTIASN
Experiment: Trypsin inhibitory activity of peptides (BApNA hydrolysis, OD405; IC50, Ki, residual activity)
Type: biochemical
Details: for Ki: Ki=IC50/(1+S/Km), Km 0.33 mM, read-out: Ki; for IC50: trypsin 50 nM, BApNA 1.22 mM, read-out: IC50
Summary of the method: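 Trypsin (50 nM final) preincubated with peptides at 37 °C in 50 mM Tris-HCl pH 7.8, 20 mM CaCl2; BApNA added (1.22 mM final), 260 min at 37 °C, then OD405 read. Residual activity from enzyme-only and substrate-only controls; IC50 fitted and converted to Ki via Ki=IC50/(1+S/Km), Km measured separately for BApNA.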

| Compound | Ki [nM] | IC50 [nM] | inhibitory activity against trypsin (in words) | also measured |
| --- | --- | --- | --- | --- |
| CC[C@H](C)[C@@H]1NC(=O)[C@@H]2CCCN2C(=O)[C@@H]2CCCN2C(=O)[C@H]([C@@H](C)CC)NC(=O)[C@H](CO)NC(=O)[C@H](CCCCN)NC(=O)[C@H]([C@@H](C)O)NC(=O)[C@H](Cc2c[nH]cn2)NC(=O)[C@H](CCCNC(=N)N)NC(=O)CNC(=O)[C@@H](N)CSSC[C@@H](C(=O)N[C@@H](Cc2ccccc2)C(=O)O)NC1=O [BT56] (H-CGRHTKSIPPICF-OH; disulfide 1-12; N-terminus and C-terminus assumed) | 20 | 110 | – | – |
| CC[C@H](C)[C@@H]1NC(=O)[C@@H]2CCCN2C(=O)[C@@H]2CCCN2C(=O)[C@H]([C@@H](C)CC)NC(=O)[C@H](CO)NC(=O)[C@H](CCCCN)NC(=O)[C@H]([C@@H](C)O)NC(=O)[C@H](Cc2c[nH]c3ccccc23)NC(=O)[C@H](CCCNC(=N)N)NC(=O)CNC(=O)[C@@H](N)CSSC[C@@H](C(=O)N[C@@H](Cc2ccccc2)C(=O)O)NC1=O [BT57] (H-CGRWTKSIPPICF-OH; disulfide 1-12; C-terminus assumed) | 30 | 130 | excellent trypsin inhibitory activities | – |
| CC[C@H](C)[C@@H]1NC(=O)[C@@H]2CCCN2C(=O)[C@@H]2CCCN2C(=O)[C@H]([C@@H](C)CC)NC(=O)[C@H](CO)NC(=O)[C@H](CCCCN)NC(=O)[C@H]([C@@H](C)O)NC(=O)[C@H](CCC(=O)O)NC(=O)[C@H](CCCNC(=N)N)NC(=O)CNC(=O)[C@@H](N)CSSC[C@@H](C(=O)N[C@@H](Cc2ccccc2)C(=O)O)NC1=O [BT58] (H-CGRETKSIPPICF-OH; disulfide 1-12; N-terminus and C-terminus assumed) | 30 | 120 | – | – |
| CC[C@H](C)[C@@H]1NC(=O)[C@@H]2CCCN2C(=O)[C@@H]2CCCN2C(=O)[C@H]([C@@H](C)CC)NC(=O)[C@H](CO)NC(=O)[C@H](CCCCN)NC(=O)[C@H]([C@@H](C)O)NC(=O)CNC(=O)[C@H](CCCNC(=N)N)NC(=O)CNC(=O)[C@@H](N)CSSC[C@@H](C(=O)N[C@@H](Cc2ccccc2)C(=O)O)NC1=O [BT60] (H-CGRGTKSIPPICF-OH; disulfide 1-12) | 90 | – | excellent trypsin inhibitory activities | – |
| CC[C@H](C)[C@@H]1NC(=O)[C@H](CO)NC(=O)[C@H](CCCNC(=N)N)NC(=O)[C@H]([C@@H](C)O)NC(=O)[C@@H](NC(=O)[C@@H](N)CCCNC(=N)N)CSSC[C@@H](C(=O)N[C@@H](Cc2c[nH]c3ccccc23)C(=O)O)NC(=O)[C@H](Cc2c[nH]cn2)NC(=O)[C@@H]2CCCN2C(=O)[C@@H]2CCCN2C1=O [BT61] (H-RCTRSIPPHCW-OH; disulfide 2-10; N-terminus and C-terminus assumed) | 190 | – | – | – |
| CC[C@H](C)[C@@H]1NC(=O)[C@H](CO)NC(=O)[C@H](CCCCN)NC(=O)[C@H]([C@@H](C)O)NC(=O)[C@@H](NC(=O)[C@@H](N)CCCNC(=N)N)CSSC[C@@H](C(=O)N[C@@H](Cc2ccccc2)C(=O)O)NC(=O)[C@H](Cc2c[nH]cn2)NC(=O)[C@@H]2CCCN2C(=O)[C@@H]2CCCN2C1=O [BT62] (H-RCTKSIPPHCF-OH; disulfide 2-10; N-terminus and C-terminus assumed) | 10 | 70 | – | – |
| CC[C@H](C)[C@@H]1NC(=O)[C@H](CO)NC(=O)[C@H](CCCCN)NC(=O)[C@H]([C@@H](C)O)NC(=O)[C@@H](NC(=O)[C@@H](N)CCCNC(=N)N)CSSC[C@@H](C(=O)N[C@@H](Cc2c[nH]cn2)C(=O)O)NC(=O)[C@H](CCC(N)=O)NC(=O)[C@@H]2CCCN2C(=O)[C@@H]2CCCN2C1=O [BT63] (H-RCTKSIPPQCH-OH; disulfide 2-10; N-terminus and C-terminus assumed) | 20 | 90 | – | – |
| CC(C)C[C@@H]1NC(=O)[C@H](CO)NC(=O)[C@H](CCCCN)NC(=O)[C@H]([C@@H](C)O)NC(=O)[C@@H](NC(=O)[C@@H](N)CCCNC(=N)N)CSSC[C@@H](C(=O)N[C@@H](CO)C(=O)O)NC(=O)[C@H](CCC(N)=O)NC(=O)[C@@H]2CCCN2C(=O)[C@@H]2CCCN2C1=O [BT65] (H-RCTKSLPPQCS-OH; disulfide 2-10; C-terminus assumed) | 130 | – | excellent trypsin inhibitory activities | – |
| CC[C@H](C)[C@@H]1NC(=O)[C@@H]2CCCN2C(=O)[C@@H]2CCCN2C(=O)[C@H]([C@@H](C)CC)NC(=O)[C@H](CO)NC(=O)[C@H](CCCCN)NC(=O)[C@H]([C@@H](C)O)NC(=O)[C@H](C)NC(=O)[C@H](CCCNC(=N)N)NC(=O)[C@@H]2CCCN2C(=O)[C@@H](N)CSSC[C@@H](C(=O)N[C@@H](Cc2ccccc2)C(=O)O)NC1=O [BT66] (H-CPRATKSIPPICF-OH; disulfide 1-12; C-terminus assumed) | 10 | 60 | higher trypsin inhibitory activities | inhibitory activity against trypsin (in words) (listed as SEQ ID NO: 66): excellent trypsin inhibitory activities; Residual trypsin activity (peptide 0.000098 μM): 107.0 ± 6.2%; Residual trypsin activity (peptide 0.00098 μM): 104.7 ± 2.1%; Residual trypsin activity (peptide 0.0098 μM): 106.2 ± 3.4%; Residual trypsin activity (peptide 0.0488 μM): 66.8 ± 8.2%; Residual trypsin activity (peptide 0.0585 μM): 55.7 ± 2.4%; Residual trypsin activity (peptide 0.0780 μM): 13.9 ± 4.2%; Residual trypsin activity (peptide 0.098 μM): 4.8 ± 0.7%; Residual trypsin activity (peptide 0.98 μM): 0.1 ± 0.0%; Residual trypsin activity (peptide 9.76 μM): 0.1 ± 0.0% |
| CC[C@H](C)[C@@H]1NC(=O)[C@@H]2CCCN2C(=O)[C@@H]2CCCN2C(=O)[C@H]([C@@H](C)CC)NC(=O)[C@H](CO)NC(=O)[C@H](CCCCN)NC(=O)[C@H]([C@@H](C)O)NC(=O)[C@H](C)NC(=O)[C@H](CCCNC(=N)N)NC(=O)[C@H](C)NC(=O)[C@@H](N)CSSC[C@@H](C(=O)N[C@@H](Cc2ccccc2)C(=O)O)NC1=O [BT67] (H-CARATKSIPPICF-OH; disulfide 1-12) | 10 | 50 | higher trypsin inhibitory activities | inhibitory activity against trypsin (in words) (listed as SEQ ID NO: 67): excellent trypsin inhibitory activities; Residual trypsin activity (peptide 0.000098 μM): 107.0 ± 5.5%; Residual trypsin activity (peptide 0.00098 μM): 104.4 ± 3.9%; Residual trypsin activity (peptide 0.0098 μM): 102.0 ± 2.4%; Residual trypsin activity (peptide 0.0488 μM): 49.6 ± 2.8%; Residual trypsin activity (peptide 0.0585 μM): 39.9 ± 1.7%; Residual trypsin activity (peptide 0.07317 μM): 8.1 ± 2.5%; Residual trypsin activity (peptide 0.098 μM): 1.5 ± 0.3%; Residual trypsin activity (peptide 0.98 μM): 0.1 ± 0.2%; Residual trypsin activity (peptide 9.76 μM): 0.1 ± 0.1% |
| CC[C@H](C)[C@@H]1NC(=O)[C@@H]2CCCN2C(=O)[C@@H]2C[C@@H](O)CN2C(=O)[C@H]([C@@H](C)CC)NC(=O)[C@H](CO)NC(=O)[C@H](CCCCN)NC(=O)[C@H]([C@@H](C)O)NC(=O)[C@H](C)NC(=O)[C@H](CCCNC(=N)N)NC(=O)[C@H](C)NC(=O)[C@@H](N)CSSC[C@@H](C(=O)N[C@@H](Cc2ccccc2)C(=O)O)NC1=O [BT69] (H-CARATKSI[Hyp]PICF-OH; disulfide 1-12; C-terminus assumed) | 10 | 60 | excellent trypsin inhibitory activities | – |
| CC[C@H](C)[C@@H]1NC(=O)[C@@H]2C[C@@H](O)CN2C(=O)[C@@H]2CCCN2C(=O)[C@H]([C@@H](C)CC)NC(=O)[C@H](CO)NC(=O)[C@H](CCCCN)NC(=O)[C@H]([C@@H](C)O)NC(=O)[C@H](C)NC(=O)[C@H](CCCNC(=N)N)NC(=O)[C@H](C)NC(=O)[C@@H](N)CSSC[C@@H](C(=O)N[C@@H](Cc2ccccc2)C(=O)O)NC1=O [BT70] (H-CARATKSIP[Hyp]ICF-OH; disulfide 1-12; C-terminus assumed) | 30 | – | excellent trypsin inhibitory activities | – |
| CC[C@H](C)[C@@H]1NC(=O)[C@@H]2CCCN2C(=O)[C@@H]2CCCN2C(=O)[C@H]([C@@H](C)CC)NC(=O)[C@H](CO)NC(=O)[C@H](CCCCN)NC(=O)[C@H]([C@@H](C)O)NC(=O)[C@H](C)NC(=O)[C@H](CCCNC(=N)N)NC(=O)[C@H](C(C)C)NC(=O)[C@@H](N)CSSC[C@@H](C(=O)N[C@@H](Cc2ccccc2)C(=O)O)NC1=O [BT71] (H-CVRATKSIPPICF-OH; disulfide 1-12; N-terminus and C-terminus assumed) | 20 | 110 | excellent trypsin inhibitory activities | – |
| CC[C@H](C)[C@@H]1NC(=O)[C@@H]2CCCN2C(=O)[C@@H]2CCCN2C(=O)[C@H]([C@@H](C)CC)NC(=O)[C@H](CO)NC(=O)[C@H](CCCCN)NC(=O)[C@H]([C@@H](C)O)NC(=O)[C@H](C)NC(=O)[C@H](CCCNC(=N)N)NC(=O)[C@H](CC(C)C)NC(=O)[C@@H](N)CSSC[C@@H](C(=O)N[C@@H](Cc2ccccc2)C(=O)O)NC1=O [BT72] (H-CLRATKSIPPICF-OH; disulfide 1-12; N-terminus and C-terminus assumed) | 30 | 130 | – | – |
| CC[C@H](C)[C@@H]1NC(=O)[C@@H](N)CSSC[C@@H](C(=O)N[C@@H](Cc2ccccc2)C(=O)O)NC(=O)[C@H]([C@@H](C)CC)NC(=O)[C@@H]2CCCN2C(=O)[C@@H]2CCCN2C(=O)[C@H]([C@@H](C)CC)NC(=O)[C@H](CO)NC(=O)[C@H](CCCCN)NC(=O)[C@H]([C@@H](C)O)NC(=O)[C@H](C)NC(=O)[C@H](CCCNC(=N)N)NC1=O [BT73] (H-CIRATKSIPPICF-OH; disulfide 1-12; N-terminus and C-terminus assumed) | 30 | 120 | – | – |
